The target in assay [1] is Glycogen synthase kinase-3 beta (Homo sapiens, UniProt P49841). Nature of the assay: Selectivity interaction (KinomeScan (DiscoverX)) EUB0000595a GSK3B. The conditions noted are these: at 10 µM.
The target in assay [2] is Ribosomal protein S6 kinase alpha-6 (Homo sapiens, UniProt Q9UK32). The conditions noted are these: at 10 µM.
For assay [3], the target named is ALK tyrosine kinase receptor (Homo sapiens, UniProt Q9UM73). Nature of the assay: Selectivity interaction (SelectScreen profiling (Invitrogen)) EUB0000607a ALK. The note with it: at 2 µM.
Assay [4] deals with Casein kinase I isoform gamma-2 (Homo sapiens) (UniProt P78368). Nature of the assay: Selectivity interaction (KinomeScan (DiscoverX)) EUB0000607a CSNK1G2. The note with it: at 10 µM.
Assay [5] deals with T1, Serine/threonine-protein kinase Nek9 (Homo sapiens) (UniProt Q8TD19).
T1 sequence (whole entry): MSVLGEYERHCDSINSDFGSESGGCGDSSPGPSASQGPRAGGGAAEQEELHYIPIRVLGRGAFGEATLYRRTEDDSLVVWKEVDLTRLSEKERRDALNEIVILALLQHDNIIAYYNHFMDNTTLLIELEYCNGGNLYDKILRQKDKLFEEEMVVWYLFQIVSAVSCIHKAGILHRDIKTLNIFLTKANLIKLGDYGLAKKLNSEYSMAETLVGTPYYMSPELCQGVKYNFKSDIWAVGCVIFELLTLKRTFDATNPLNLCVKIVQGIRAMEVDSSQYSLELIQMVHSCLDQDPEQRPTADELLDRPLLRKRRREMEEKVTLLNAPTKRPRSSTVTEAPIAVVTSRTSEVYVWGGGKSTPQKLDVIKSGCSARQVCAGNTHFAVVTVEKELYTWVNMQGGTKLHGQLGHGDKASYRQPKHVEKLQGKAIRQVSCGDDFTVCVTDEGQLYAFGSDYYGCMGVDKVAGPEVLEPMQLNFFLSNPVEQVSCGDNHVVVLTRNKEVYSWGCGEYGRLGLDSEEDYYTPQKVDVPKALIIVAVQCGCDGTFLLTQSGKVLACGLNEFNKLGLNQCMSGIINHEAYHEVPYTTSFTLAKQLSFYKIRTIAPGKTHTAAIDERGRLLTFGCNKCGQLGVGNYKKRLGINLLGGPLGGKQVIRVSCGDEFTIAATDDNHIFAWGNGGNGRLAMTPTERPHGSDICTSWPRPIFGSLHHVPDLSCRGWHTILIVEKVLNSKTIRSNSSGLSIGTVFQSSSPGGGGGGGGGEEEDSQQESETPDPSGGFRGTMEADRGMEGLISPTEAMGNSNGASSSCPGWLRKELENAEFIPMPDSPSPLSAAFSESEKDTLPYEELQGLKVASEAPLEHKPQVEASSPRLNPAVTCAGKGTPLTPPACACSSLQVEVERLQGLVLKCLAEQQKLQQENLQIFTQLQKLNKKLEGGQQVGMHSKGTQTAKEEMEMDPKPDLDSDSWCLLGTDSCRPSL
Description: Selectivity interaction (Ambit KINOMEscan and KiNATiv profiling in Jurkat cells) EUB0000090b NEK9. The format is cell-based. The note with it: at 1 µM.

Assay [6] deals with Tyrosine-protein kinase ABL2 (Homo sapiens, UniProt P42684). Nature of the assay: Selectivity interaction (Upstate Kinase Profiler service (Millipore)) EUB0000056c ABL2. The note with it: at 1 µM.
Assay [7] in a line: Selectivity interaction (Calcium Channel (L) receptor assay: rat brain ) EUB0000877a CACNA1C.
Assay [8] concerns the target T2, Serine/threonine-protein kinase LATS2 (Homo sapiens) (UniProt Q9NRM7).
T2 sequence (whole entry): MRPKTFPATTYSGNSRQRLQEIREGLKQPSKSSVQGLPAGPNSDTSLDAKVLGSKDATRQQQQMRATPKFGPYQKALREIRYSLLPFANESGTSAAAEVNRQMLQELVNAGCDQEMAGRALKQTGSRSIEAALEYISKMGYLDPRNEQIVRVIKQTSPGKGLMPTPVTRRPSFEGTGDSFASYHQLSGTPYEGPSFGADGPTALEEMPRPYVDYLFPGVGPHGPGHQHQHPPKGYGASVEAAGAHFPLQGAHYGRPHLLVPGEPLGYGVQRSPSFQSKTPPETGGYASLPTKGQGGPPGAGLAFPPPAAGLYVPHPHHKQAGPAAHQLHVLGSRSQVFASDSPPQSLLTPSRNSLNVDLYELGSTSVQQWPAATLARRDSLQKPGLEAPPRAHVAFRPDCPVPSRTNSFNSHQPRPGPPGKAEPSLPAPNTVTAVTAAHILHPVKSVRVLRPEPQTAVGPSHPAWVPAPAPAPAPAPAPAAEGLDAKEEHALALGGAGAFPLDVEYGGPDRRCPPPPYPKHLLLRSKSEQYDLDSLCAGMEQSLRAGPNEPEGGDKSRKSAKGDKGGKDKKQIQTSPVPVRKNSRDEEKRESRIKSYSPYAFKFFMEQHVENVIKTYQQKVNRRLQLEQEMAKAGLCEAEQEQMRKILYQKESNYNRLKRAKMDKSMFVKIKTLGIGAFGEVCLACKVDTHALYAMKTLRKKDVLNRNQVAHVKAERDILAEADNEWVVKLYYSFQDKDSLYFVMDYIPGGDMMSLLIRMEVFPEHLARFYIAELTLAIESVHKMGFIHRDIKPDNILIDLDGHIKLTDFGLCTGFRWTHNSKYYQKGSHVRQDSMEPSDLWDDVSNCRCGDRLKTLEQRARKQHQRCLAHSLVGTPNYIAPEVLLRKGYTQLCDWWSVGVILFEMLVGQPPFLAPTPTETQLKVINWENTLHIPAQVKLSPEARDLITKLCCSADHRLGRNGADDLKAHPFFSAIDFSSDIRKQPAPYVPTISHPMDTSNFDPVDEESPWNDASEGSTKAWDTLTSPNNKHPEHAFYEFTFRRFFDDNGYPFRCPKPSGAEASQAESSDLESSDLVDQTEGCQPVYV
Nature of the assay: Selectivity interaction (KinomeScan (DiscoverX)) EUB0000618a LATS2. The conditions noted are these: at 10 µM.

Assay [9] addresses Casein kinase II subunit alpha' (Homo sapiens) (UniProt P19784). Nature of the assay: Selectivity interaction (Kinase panel (KiNativ target engagement assay in Jurkat cells)) EUB0001635a CSNK2A2. The conditions noted are these: Selectivity number of off-targets 0.0, Selectivity number of targets 233.0, Source Knowledge https://www.sciencedirect.com/science/article/pii/S2451945619300674?via%3Dihub, at 1 µM. It is filed as cell-based.

pIC50: −log10 of the molar value.

By pIC50 is commonly meant the negative decadic logarithm of the IC50, by convention in mol/L.

Chain of ALK tyrosine kinase receptor (Q9UM73 19-1620 limits assumed): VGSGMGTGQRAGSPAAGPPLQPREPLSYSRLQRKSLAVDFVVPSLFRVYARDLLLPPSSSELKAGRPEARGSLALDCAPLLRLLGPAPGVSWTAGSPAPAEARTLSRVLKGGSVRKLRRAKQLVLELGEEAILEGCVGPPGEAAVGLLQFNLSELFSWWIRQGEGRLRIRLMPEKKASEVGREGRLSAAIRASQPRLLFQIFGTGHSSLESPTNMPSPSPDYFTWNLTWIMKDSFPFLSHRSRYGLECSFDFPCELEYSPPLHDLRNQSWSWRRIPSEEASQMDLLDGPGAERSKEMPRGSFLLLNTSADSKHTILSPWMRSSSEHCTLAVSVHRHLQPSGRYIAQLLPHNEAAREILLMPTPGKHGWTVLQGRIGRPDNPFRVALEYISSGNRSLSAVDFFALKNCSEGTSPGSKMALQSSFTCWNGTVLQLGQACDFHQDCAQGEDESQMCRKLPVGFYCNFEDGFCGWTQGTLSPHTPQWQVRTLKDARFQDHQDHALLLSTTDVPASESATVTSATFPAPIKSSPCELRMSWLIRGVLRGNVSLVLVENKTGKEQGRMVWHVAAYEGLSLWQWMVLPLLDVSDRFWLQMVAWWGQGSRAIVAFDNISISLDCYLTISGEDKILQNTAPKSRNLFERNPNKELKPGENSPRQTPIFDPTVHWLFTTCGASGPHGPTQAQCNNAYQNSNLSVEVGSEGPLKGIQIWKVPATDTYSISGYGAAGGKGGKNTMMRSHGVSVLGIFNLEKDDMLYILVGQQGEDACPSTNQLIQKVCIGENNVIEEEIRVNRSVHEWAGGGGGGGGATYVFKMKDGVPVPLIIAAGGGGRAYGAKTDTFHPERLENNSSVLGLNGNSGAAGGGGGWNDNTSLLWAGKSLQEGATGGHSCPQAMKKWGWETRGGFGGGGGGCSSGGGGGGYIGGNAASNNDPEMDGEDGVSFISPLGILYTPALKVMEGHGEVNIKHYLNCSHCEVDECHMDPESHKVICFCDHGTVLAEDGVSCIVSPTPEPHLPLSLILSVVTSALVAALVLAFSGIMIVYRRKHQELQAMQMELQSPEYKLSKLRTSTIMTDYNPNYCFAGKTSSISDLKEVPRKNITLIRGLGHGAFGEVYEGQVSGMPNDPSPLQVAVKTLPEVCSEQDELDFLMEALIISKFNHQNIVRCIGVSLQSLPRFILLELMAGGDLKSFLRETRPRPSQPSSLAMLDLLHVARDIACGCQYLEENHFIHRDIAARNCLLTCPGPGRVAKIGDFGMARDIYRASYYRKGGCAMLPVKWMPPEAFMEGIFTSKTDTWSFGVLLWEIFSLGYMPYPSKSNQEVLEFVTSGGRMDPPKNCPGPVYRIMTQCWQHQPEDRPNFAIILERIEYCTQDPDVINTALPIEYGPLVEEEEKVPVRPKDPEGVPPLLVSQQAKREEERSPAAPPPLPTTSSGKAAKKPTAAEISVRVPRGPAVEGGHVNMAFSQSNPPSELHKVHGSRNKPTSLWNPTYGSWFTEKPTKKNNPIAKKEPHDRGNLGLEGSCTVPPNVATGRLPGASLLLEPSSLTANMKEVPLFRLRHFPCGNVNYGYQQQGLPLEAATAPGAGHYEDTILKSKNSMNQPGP
Chain of Casein kinase II subunit alpha' (Homo sapiens) (P19784 whole entry, looked up): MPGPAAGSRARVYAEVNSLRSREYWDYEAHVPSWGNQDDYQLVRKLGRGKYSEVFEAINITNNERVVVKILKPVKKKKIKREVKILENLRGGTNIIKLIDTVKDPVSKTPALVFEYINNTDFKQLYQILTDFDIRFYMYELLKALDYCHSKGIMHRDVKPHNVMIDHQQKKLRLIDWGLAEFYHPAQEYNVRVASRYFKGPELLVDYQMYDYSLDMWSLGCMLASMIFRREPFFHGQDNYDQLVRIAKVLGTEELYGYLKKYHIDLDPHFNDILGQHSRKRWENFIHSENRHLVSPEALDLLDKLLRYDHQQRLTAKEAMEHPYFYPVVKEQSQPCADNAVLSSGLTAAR
Chain of Ribosomal protein S6 kinase alpha-6 (Q9UK32 whole entry): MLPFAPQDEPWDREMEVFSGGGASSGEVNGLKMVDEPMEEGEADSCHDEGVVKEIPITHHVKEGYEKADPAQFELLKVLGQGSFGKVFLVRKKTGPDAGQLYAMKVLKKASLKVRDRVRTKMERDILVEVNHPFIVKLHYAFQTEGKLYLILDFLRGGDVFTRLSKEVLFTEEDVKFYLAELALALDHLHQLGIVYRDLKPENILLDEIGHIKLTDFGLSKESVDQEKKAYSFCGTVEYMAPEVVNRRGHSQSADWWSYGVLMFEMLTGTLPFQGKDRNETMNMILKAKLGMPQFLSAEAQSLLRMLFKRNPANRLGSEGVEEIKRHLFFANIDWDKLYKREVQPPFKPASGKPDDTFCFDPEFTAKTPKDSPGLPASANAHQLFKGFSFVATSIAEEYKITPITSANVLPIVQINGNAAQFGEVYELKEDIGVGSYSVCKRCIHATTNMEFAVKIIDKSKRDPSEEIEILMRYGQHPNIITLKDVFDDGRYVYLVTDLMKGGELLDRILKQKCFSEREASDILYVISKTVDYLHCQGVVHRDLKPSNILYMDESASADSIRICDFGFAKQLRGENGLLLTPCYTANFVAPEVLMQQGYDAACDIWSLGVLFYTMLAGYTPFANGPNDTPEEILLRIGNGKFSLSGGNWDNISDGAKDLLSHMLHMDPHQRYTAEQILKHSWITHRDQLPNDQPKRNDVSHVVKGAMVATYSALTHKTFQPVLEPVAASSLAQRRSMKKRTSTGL
Chain of Tyrosine-protein kinase ABL2 (P42684 whole entry): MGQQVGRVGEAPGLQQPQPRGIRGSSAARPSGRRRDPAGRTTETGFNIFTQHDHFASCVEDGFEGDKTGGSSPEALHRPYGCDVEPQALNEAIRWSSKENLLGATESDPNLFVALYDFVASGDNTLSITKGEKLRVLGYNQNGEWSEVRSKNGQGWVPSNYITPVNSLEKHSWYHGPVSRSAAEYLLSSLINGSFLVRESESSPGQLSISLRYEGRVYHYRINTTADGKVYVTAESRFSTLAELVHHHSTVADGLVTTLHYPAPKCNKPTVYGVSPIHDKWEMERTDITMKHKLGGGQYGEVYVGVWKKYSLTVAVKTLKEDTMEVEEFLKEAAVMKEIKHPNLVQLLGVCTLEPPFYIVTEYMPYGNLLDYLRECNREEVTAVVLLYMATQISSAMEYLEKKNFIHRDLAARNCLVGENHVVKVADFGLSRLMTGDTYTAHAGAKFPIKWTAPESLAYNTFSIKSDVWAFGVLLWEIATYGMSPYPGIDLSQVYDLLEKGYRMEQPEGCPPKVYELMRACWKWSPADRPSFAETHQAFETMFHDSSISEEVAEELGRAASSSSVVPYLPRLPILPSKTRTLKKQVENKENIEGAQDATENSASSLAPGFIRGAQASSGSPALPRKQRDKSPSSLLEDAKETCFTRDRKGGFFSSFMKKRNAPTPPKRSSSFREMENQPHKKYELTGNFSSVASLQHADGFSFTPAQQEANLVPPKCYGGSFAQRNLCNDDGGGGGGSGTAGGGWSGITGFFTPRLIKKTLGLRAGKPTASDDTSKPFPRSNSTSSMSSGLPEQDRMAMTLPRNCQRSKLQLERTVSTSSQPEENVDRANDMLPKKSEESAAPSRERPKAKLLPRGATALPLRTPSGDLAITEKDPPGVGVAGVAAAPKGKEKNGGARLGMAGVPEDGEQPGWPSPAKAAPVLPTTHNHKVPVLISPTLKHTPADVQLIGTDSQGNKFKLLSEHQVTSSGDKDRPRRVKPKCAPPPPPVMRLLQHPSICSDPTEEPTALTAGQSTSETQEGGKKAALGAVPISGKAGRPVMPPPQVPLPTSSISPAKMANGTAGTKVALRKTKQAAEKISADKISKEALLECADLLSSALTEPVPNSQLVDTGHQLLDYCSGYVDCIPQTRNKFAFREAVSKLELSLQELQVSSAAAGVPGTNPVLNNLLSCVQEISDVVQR
Chain of Casein kinase I isoform gamma-2 (Homo sapiens) (P78368 whole entry, looked up, canonical isoform): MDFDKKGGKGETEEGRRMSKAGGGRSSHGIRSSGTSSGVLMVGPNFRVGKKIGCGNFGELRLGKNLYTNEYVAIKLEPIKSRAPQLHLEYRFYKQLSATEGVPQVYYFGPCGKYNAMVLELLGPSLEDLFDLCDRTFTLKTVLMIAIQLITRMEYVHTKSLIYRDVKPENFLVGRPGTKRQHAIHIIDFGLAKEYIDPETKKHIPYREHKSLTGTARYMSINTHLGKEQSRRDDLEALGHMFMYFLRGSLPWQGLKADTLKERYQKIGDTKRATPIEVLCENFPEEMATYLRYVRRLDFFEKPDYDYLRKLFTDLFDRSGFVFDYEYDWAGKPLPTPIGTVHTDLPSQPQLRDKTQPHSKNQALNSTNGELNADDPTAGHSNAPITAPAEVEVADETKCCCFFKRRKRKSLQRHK
Chain of Glycogen synthase kinase-3 beta (P49841 whole entry, looked up): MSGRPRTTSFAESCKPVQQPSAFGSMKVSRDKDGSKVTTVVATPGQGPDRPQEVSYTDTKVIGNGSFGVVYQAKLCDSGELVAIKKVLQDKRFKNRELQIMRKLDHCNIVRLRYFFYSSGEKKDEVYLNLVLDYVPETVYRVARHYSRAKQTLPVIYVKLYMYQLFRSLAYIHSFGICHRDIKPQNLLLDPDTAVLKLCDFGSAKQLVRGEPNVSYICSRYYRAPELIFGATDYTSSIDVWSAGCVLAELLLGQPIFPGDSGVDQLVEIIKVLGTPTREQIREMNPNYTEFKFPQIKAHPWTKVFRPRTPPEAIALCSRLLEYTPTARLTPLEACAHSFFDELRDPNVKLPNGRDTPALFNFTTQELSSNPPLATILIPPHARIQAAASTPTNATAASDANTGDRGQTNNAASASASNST

Regarding `COCC(=O)NC/C=C/c1ccc2ncnc(Nc3ccc(Oc4ccc(C)nc4)c(C)c3)c2c1` [CP-724714], the % of control in [1] was 68%. Compound `CCN(CC)CCCCNc1ncc2cc(-c3cc(OC)cc(OC)c3)c(NC(=O)NC(C)(C)C)nc2n1` had a % of control in [2] of 100%. Regarding `CNC(=O)Nc1ccc(-c2nc(N3CC4CCC(C3)O4)c3cnn(C4CCC5(CC4)OCCO5)c3n2)cc1`, the % of inhibition in [3] is 0%. The % of control in assay [4] is 95%.

The compound `CN(C)C/C=C/C(=O)Nc1ccc(C(=O)N2CCCC(Nc3ncc(Cl)c(-c4c[nH]c5ccccc45)n3)C2)cc1` (centres undefined) came in with a % of control in assay [5] of 100%. The compound `Cc1ccc(-c2ccc3c(ccc4sc5c(c43)NC[C@@H](C)NC5=O)n2)cn1` returned a % of inhibition in [6] of 13%. For `CCC(=O)N1CC[C@H](Nc2ncnc3c2CN(c2cnc(OC)c(C(F)(F)F)c2)CC3)C1` [LENIOLISIB], the pIC50 in assay [7] was under 4.52. Compound `O[C@H]1CC[C@H](Nc2ncc3nc(Nc4c(F)cc(F)cc4F)n([C@H]4CCOC4)c3n2)CC1` gave a % of control in assay [8] of 88%.

Take `C=CC(=O)Nc1ccc(C(=O)Nc2[nH]nc3c2CN(C(=O)N[C@H](CN(C)C)c2ccccc2)C3(C)C)cc1`: the % of engagement in [9] is -0.9%.

These data come from ChEMBL document CHEMBL5465560, “Selectivity Literature for EUbOPEN Chemogenomic Library” (2024).
